{"source": "patent US20220202811A1", "about": "“TREATMENT FOR RETINOIC ACID RECEPTOR-RELATED ORPHAN RECEPTOR Ɣ (RORƔ)-DEPENDENT CANCERS” (The Regents of the University of California, priority 2019, published 2022)", "key": {"[1]": {"test_system": "K562 cells", "assay": "k562 colony assay in methylcellulose", "format": "cell-based, human", "text": "K562 is an aggressive human leukemia cell line generated from blast crisis chronic myeloid leukemia. […] Cells were allowed to grow over the course of 8 days before the numbers of formed colonies were counted. This was used to understand the functionality of k562 cells under different conditions. Cells treated with AZD-0284 formed fewer colonies and their morphology was smaller in comparison to the vehicle-treated cells."}, "[2]": {"test_system": "primary patient-derived xenografts", "assay": "compilation of primary patient-derived xenografts, JTE-151", "format": "in vivo, human", "conditions": "JTE-151 vs vehicle, compilation (FIG. 78)", "text": "Finally, the impact of JTE-151 was examined in vivo on mice bearing primary patient-derived pancreatic cancer xenografts (FIGS. 70-78). […] FIGS. 70-72 show 3 rounds of treatment in an experiment using mice bearing PDX1356 xenographs. The horizontal axis of the first panel in each of FIGS. 70-72 represents days of treatment, and the vertical axis represents tumor volume. The horizontal axis of each of the remaining panels represents the target (vehicle vs. JTE-151 mouse), and the vertical axis represents the specified measurement. JTE-151 was given at the regimen as specified in the figures. For example, in the first round (FIG. 70), JTE-151 was given at 90 mg/kg body weight once per day for the first 25 days, then twice per day from day 26 though day 40.\nTwo other primary patient-derived xenografts, PDX1535 (FIGS. 74 and 75) and PDX1424 (FIGS. 76 and 77), were tested using JTE-151 at 90 mg/kg once per day. […] Considering the reduced tumor mass and cell numbers, the absence of a significant change in tumor volume may be due to necrotic cells that remained for a while post drug treatment."}, "[3]": {"test_system": "Hmga2", "assay": "target engagement by Hmga2 immunofluorescence in KP^f/fC tumors", "format": "in vivo, mouse", "conditions": "mid-point of the treatment regimen", "protocol": "FIGS. 20A-20D show target engagement following RORγ inhibition in vivo, related to FIGS. 5A-5X. FIGS. 20A and 20B: Tumor-bearing KP^f/fC mice 9.5 weeks of age were treated with vehicle or SR2211 for two weeks (midpoint), after which tumors were isolated, fixed, and analyzed for target engagement of Hmga2 in epithelial cells by immunofluorescence. Quantification of Hmga2-positive epithelial cells in vehicle or SR2211 treated tumors (FIG. 20A) representative images (FIG. 20B). FIGS. 20C and 20D: Tumor-bearing KP^f/fC mice were treated from 8 weeks of age to endpoint with either vehicle or SR2211. Quantification of Hmga2-positive epithelial cells in vehicle or SR2211 treated tumors (FIG. 20C), representative images (FIG. 20D). Four frames were analyzed per mouse, n=2-4 mice per condition, Hmga2 (red), Keratin (green). Data represented as mean+/−S.E.M. *p<0.05, **p<0.01, ***p<0.001 by Student's t-test or One-way ANOVA. Grubb's test (p=0.1), was used to remove an outlier from the midpoint SR2211 treated group.\nPancreatic cancer tissue from KP^f/fC mice was fixed in Z-fix (Anatech Ltd, Fisher Scientific) and paraffin embedded at the UCSD Histology and Immunohistochemistry Core at The Sanford Consortium for Regenerative Medicine according to standard protocols. 5 μm sections were obtained and deparaffinized in xylene. […]"}, "[4]": {"test_system": "KP^f/fC derived flank tumors", "assay": "KP^f/fC flank tumors in immunocompetent mice", "format": "in vivo, mouse"}, "[5]": {"test_system": "pancreatic cancer cell", "assay": "in vitro sphere formation, antagonists of Table 2", "format": "cell-based, mouse", "conditions": "extent of growth suppression relative to control", "protocol": "Pancreatic tumorsphere formation assays were performed and modified from (Rovira et al., 2010). Briefly, low-passage (<6 passages) WT or REM2-KP^f/fC cell lines were infected with lentiviral particles containing shRNAs; positively infected (red) cells were sorted 72 hours after transduction. 100-300 infected cells were suspended in tumorsphere media: 100 μl DMEM F-12 (Gibco, Life Technologies) containing 1× B-27 supplement (Gibco, Life Technologies), 3% FBS, 100 μM B-mercaptoethanol (Gibco, Life Technologies), 1× non-essential amino acids (Gibco, Life Technologies), 1× N2 supplement (Gibco, Life Technologies), 20 ng/ml EGF (Gibco, Life Technologies), 20 ng/ml bFGF2 (Gibco, Life Technologies), and 10 ng/ml ESGRO mLIF (Thermo Fisher). Cells in media were plated in 96-well ultra-low adhesion culture plates (Costar) and incubated at 37° C. for 7 days. KP^f/fC in vitro tumorsphere formation studies were conducted at a minimum of n=3 independent wells per cell line across two independent shRNA of n=3 wells; however, the majority of these experiments were additionally completed in >1 independently-derived cell lines n=3, at n=3 wells per shRNA."}, "[6]": {"conditions": "SR2211 in combination with gemcitabine"}}, "data": [{"smiles": "CC(=O)N1Cc2cc(S(C)(=O)=O)ccc2[C@@H]1C(=O)Nc1ccc(C(O)(C(F)(F)F)C(F)(F)F)cc1", "note": "[AZD-0284]", "values": [{"measurement": "number of colonies formed", "setting": "[1]; 1 μM, 3 μM, 5 μM, 10 μM, and 15 μM AZD-0284, 8 days", "value": "significant reduction"}, {"measurement": "colony morphology", "setting": "[1]; in comparison to the vehicle-treated cells", "value": "smaller"}]}, {"smiles": "Cc1ccc(NC(=O)C[C@H](CCC(=O)O)c2noc([C@H]3C[C@@H](CC(C)(C)C)C3)c2C2CC2)c(Cl)c1", "note": "[JTE-151, (4S)-6-[(2-chloro-4-methylphenyl)amino]-4-{4-cyclopropyl-5-[cis-3-(2,2-dimethylpropyl)cyclobutyl]isoxazol-3-yl}-6-oxohexanoic acid]", "values": [{"measurement": "EpCam+ tumor epithelial cells", "setting": "[2]", "value": "significantly reduced"}, {"measurement": "EpCam+/CD133+ tumor stem cells", "setting": "[2]", "value": "significantly reduced"}, {"measurement": "cell number", "setting": "[2]", "value": "significantly reduced"}, {"measurement": "tumor mass", "setting": "[2]", "value": "significantly reduced"}]}, {"smiles": "OC(c1ccc(-c2ccc(CN3CCN(Cc4ccncc4)CC3)cc2)c(F)c1)(C(F)(F)F)C(F)(F)F", "note": "[SR2211]", "values": [{"measurement": "Hmga2 in pancreatic epithelial cells", "setting": "[3]", "value": "downregulated"}, {"measurement": "depletion in CD133+ cells", "setting": "[4]; SR2211 alone", "value": 3, "unit": "fold"}, {"measurement": "depletion in Msi+ cells", "setting": "[4]; SR2211 alone", "value": 3, "unit": "fold"}, {"measurement": "depletion of CD133+ cells", "setting": "[4]; [6]", "value": 11, "unit": "fold"}, {"measurement": "depletion of Msi2+ cells", "setting": "[4]; [6]", "value": 6, "unit": "fold"}, {"measurement": "in vitro sphere formation", "setting": "[5]", "value": "✓✓✓✓ (dose response observed; growth suppressed by 8-fold or more relative to control)"}]}]}
